Where “and” joins values, the source holds several entries; their conditions need not be identical. Equal values may be shown once.
Legend:
[1] = test system: S. Mutans (+); assay: porfimer sodium aPDT, planktonic culture; type: cell-based, Streptococcus Mutans; settings: 630 nm, 200 J/cm2, porfimer sodium 125 μg/mL
Procedure: (§1) Bacteria were routinely cultured using tryptic soy broth or agar at 37° C. in a 5% CO2 incubator. Bacteria were isolated and suspended with 0.9% NaCl to an Optical Density (OD) of 0.1 taken at 630 nm, to generate the inoculum used for either planktonic or biofilm assays.
(§2) Experiments using planktonic cultures were carried out using M. catarrhalis, as a standard for further comparisons and to determine the effective drug concentration, porfimer sodium incubation time and light dose parameters which would provide an effective cell kill at the level of 5-7 logs. Once determined the experiments were repeated for all other bacterial strains examined.
(§3) The colony forming units (CFU) per mL of the starting inoculum for every experiment was determined by dilution plating. […]
(§4) Bacteria were exposed to 630 nm laser light via a fiber optic with a lens affixed to the distal end to provide a uniform diverging light field. […] Power output of the laser was measured using a UDT/Gamma Scientific 371 optical power meter and an integrating sphere. […]
(§5) Biofilms were formed on glass coupons in culture dishes containing a bacterial inoculum for 48 hours under conditions specific to the strain. […] Power output of the laser was measured using a UDT/Gamma Scientific 371 optical power meter and an integrating sphere. […]

[2] = test system: Y. intermedia (−); assay: porfimer sodium aPDT, planktonic culture; type: cell-based, Yersinia intermedia; settings: 630 nm, 200 J/cm2, porfimer sodium 125 μg/mL
Procedure: as §1, §2, §3, §4, §5

[3] = test system: Staphylococcus aureus; assay: abraded skin wounds, culture swabs (Example 3); type: in vivo, Yorkshire pigs; settings: for Log CFU/site, Sa: sites 2, 7: hydrogel formulation, treated twice (LPT)
From the text: (§6) On Day −2 of the study, pigs were anesthetized and the skin aseptically prepared. Superficial wounds were created using the tape strip method until punctate bleeding was observed. Also on Day −2, eight wounds per pig were inoculated with one of three bacterial cultures (Haemophilus influenza, Moraxella catarrhalis, or Staphylococcus aureus) at a concentration of 10^7-10^8 CFUs per mL. There were two control sites on each side. […] The wounds were covered, analgesia in the form of buprenorphine (IM, 0.03 mg/kg) was provided, and the animals were recovered from anesthesia.
(§7) On Day 0, culture swabs were collected from each wound prior to dosing. Six wounds per pig were treated with the test article and the laser light treatment. Culture swabs were collected from the test wounds 1 hour following laser light treatment and the animals were recovered from anesthesia. On Day 1, culture swabs were collected from the treated wounds and two wounds per pig were treated a second time with the test article and the laser light treatment. Culture swabs were collected from these test wounds 1 hour following laser light treatment and the animals were recovered from anesthesia. On Day 2, culture swabs were collected from each wound just prior to euthanasia.
(§8) Porfimer sodium administration: to prepare the test article, 75 mg of porfimer sodium was reconstituted with the currently FDA approved method of 31.8 mL of 0.9% sodium chloride, resulting in a stock solution of 2.5 mg/mL. Due to concerns about stability of the solution, the solution was used immediately. A 10 ml solution at a concentration of 0.3 mg/ml (300 mcg/ml), in 0.9% Sodium Chloride Injection (USP) was prepared. 300 μg of porfimer sodium was applied as a saline solution to infected wounds (except controls) and incubated for 30 minutes prior to activation. The sites were exposed to a 630 nm laser light for up to 20 minutes. The light source, a 630PDT laser. Each wound was exposed to 200 J/cm^2.

[4] = test system: Moraxella catarrhalis; assay: abraded skin wounds, culture swabs (Example 3); type: in vivo, Yorkshire pigs
From the text: as §6, §7, §8

[5] = test system: Haemophilus influenza; assay: abraded skin wounds, culture swabs (Example 3); type: in vivo, Yorkshire pigs
From the text: as §6, §7, §8

[6] = test system: E. coli (−); assay: porfimer sodium aPDT, planktonic culture; type: cell-based, Escherichia coli; settings: 630 nm, 200 J/cm2, porfimer sodium 125 μg/mL
Procedure: as §1, §2, §3, §4, §5

[7] = 300 μg porfimer sodium, 30 minutes, 630 nm 200 J/cm^2

porfimer sodium
Rate of kill [1]: >7Log | Rate of kill [2]: 7Log | antimicrobial activity when applied to inoculated wounds [3, 7]: did not provide antimicrobial activity | Log CFU/site, Sa ([3]; day 1, 1 h-post 2nd tx): 2.1 × 10^5 Log CFU/site and 2.2 × 10^4 Log CFU/site | Log CFU/site, Sa ([3]; day 2, terminal): 1.2 × 10^5 Log CFU/site and 1.3 × 10^6 Log CFU/site | antimicrobial activity when applied to inoculated wounds [4, 7]: did not provide antimicrobial activity | Log CFU/site, Mc ([4]; sites 3, 8: porfimer sodium in saline, treated once (LPO), day 2, terminal): 3.1 × 10^6 Log CFU/site and 3.0 × 10^4 Log CFU/site | antimicrobial activity when applied to inoculated wounds [5, 7]: did not provide antimicrobial activity | Log CFU/site, Hi ([5]; sites 1, 6: hydrogel formulation, treated once (LPO), day 1, 24 h post tx): 3.0 × 10^5 Log CFU/site | Log CFU/site, Hi ([5]; sites 2, 7: hydrogel formulation, treated twice (LPT), day 0, 1 h-post tx): 1.3 × 10^4 Log CFU/site and 1.2 × 10^2 Log CFU/site | Log CFU/site, Hi ([5]; sites 2, 7: hydrogel formulation, treated twice (LPT), day 1, pre 2nd tx): 2.0 × 10^4 Log CFU/site and 2.3 × 10^3 Log CFU/site | Rate of kill [6]: <1Log
